Format in all cases: in vivo
The subject of test [1] is Ipomea hederaceae (IPOHE). Kind of test: Post-emergence biological efficacy, glasshouse pot test. As to conditions: Ipomoea hederacea, 312 h. An outline of the steps: (§1)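 Plants were sown in standard soil and grown 8 days in a glasshouse (24/16° C. day/night, 14 hours light, 65% humidity), then sprayed post-emergence at 1000 or 250 g/ha from acetone/water (50:50) with 0.5% Tween 20. Damage was scored visually after 13 days (0 = none, 100 = total).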

For test [2], the system named is Solanum nigrum (SOLNI). Described as above. Conditions: 312 h. In short, it runs like this:
as §1

The test system of test [3] is Echinochloa crus-galli (ECHCG). The description is as above. Conditions: 312 h. An outline of the steps:
as §1

For test [4], the system named is Setaria faberi (SETFA). Described as above. Conditions: 312 h. In short, it runs like this:
as §1

The subject of test [5] is Alopecurus myosuroides (ALOMY). Described as above. Conditions: 312 h. In short, it runs like this: as §1
The subject of test [6] is Amaranthus retoflexus (AMARE). Described as above. As to conditions: Amaranthus retroflexus, 312 h. In short, it runs like this:
as §1

Test [7] deals with Ipomea hederaceae (IPOHE). Kind of test: Pre-emergence biological efficacy, glasshouse pot test. As to conditions: Ipomoea hederacea, 312 h. In short, it runs like this: (§2)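 Compound was applied as a spray one day after sowing, at a final dose of 1000 or 250 g/ha. Plants grew under 14 h light, 24/16 °C and 65% humidity, and injury was assessed on day 13 on a 0–100 scale.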
In test [8] the test system is Solanum nigrum (SOLNI). Described as above. As to conditions: 312 h. In short, it runs like this: as §2
In test [9] the test system is Echinochloa crus-galli (ECHCG). The description is as above. As to conditions: 312 h. In short, it runs like this:
as §2

Test [10] relates to Setaria faberi (SETFA). The description is as above. As to conditions: 312 h. An outline of the steps: as §2
The subject of test [11] is Alopecurus myosuroides (ALOMY). The description is as above. Conditions: 312 h. In short, it runs like this: as §2
Test [12] relates to Amaranthus retoflexus (AMARE). The test is described as above. Conditions: Amaranthus retroflexus, 312 h. An outline of the steps:
as §2

The mark [13] stands for this setting: Rate 1,000 g/ha, post-emergence spray, evaluated after 13 days (100=total damage to plant; 0=no damage to plant), read-out: Percentage damage caused to weed species, post-emergence, IPOHE.
The mark [14] stands for this setting: Rate 1,000 g/ha, post-emergence spray, evaluated after 13 days (100=total damage to plant; 0=no damage to plant), read-out: Percentage damage caused to weed species, post-emergence, SOLNI.
The mark [15] stands for this setting: Rate 1,000 g/ha, post-emergence spray, evaluated after 13 days (100=total damage to plant; 0=no damage to plant), read-out: Percentage damage caused to weed species, post-emergence, ECHCG.
The mark [16] stands for this setting: Rate 1,000 g/ha, post-emergence spray, evaluated after 13 days (100=total damage to plant; 0=no damage to plant), read-out: Percentage damage caused to weed species, post-emergence, SETFA.
The mark [17] stands for this setting: Rate 1,000 g/ha, post-emergence spray, evaluated after 13 days (100=total damage to plant; 0=no damage to plant), read-out: Percentage damage caused to weed species, post-emergence, ALOMY.
Setting [18] is: Rate 1,000 g/ha, post-emergence spray, evaluated after 13 days (100=total damage to plant; 0=no damage to plant), read-out: Percentage damage caused to weed species, post-emergence, AMARE.
[19] abbreviates: pre-emergence, rate 1,000 g/ha, evaluated after 13 days (100=total damage to plant; 0=no damage), read-out: Percentage damage caused to weed species, IPOHE.
Setting [20] is: pre-emergence, rate 1,000 g/ha, evaluated after 13 days (100=total damage to plant; 0=no damage), read-out: Percentage damage caused to weed species, SOLNI.
[21] abbreviates: pre-emergence, rate 1,000 g/ha, evaluated after 13 days (100=total damage to plant; 0=no damage), read-out: Percentage damage caused to weed species, ECHCG.
Where [22] appears, read: pre-emergence, rate 1,000 g/ha, evaluated after 13 days (100=total damage to plant; 0=no damage), read-out: Percentage damage caused to weed species, SETFA.
The mark [23] stands for this setting: pre-emergence, rate 1,000 g/ha, evaluated after 13 days (100=total damage to plant; 0=no damage), read-out: Percentage damage caused to weed species, ALOMY.
Where [24] appears, read: pre-emergence, rate 1,000 g/ha, evaluated after 13 days (100=total damage to plant; 0=no damage), read-out: Percentage damage caused to weed species, AMARE.
[25] abbreviates: post-emergence, 1,000 g/ha, evaluated after 13 days (100=total damage; 0=no damage), read-out: Percentage damage caused to weed species, IPOHE.
The mark [26] stands for this setting: post-emergence, 1,000 g/ha, evaluated after 13 days (100=total damage; 0=no damage), read-out: Percentage damage caused to weed species, SOLNI.
The mark [27] stands for this setting: post-emergence, 1,000 g/ha, evaluated after 13 days (100=total damage; 0=no damage), read-out: Percentage damage caused to weed species, ECHCG.
Where [28] appears, read: post-emergence, 1,000 g/ha, evaluated after 13 days (100=total damage; 0=no damage), read-out: Percentage damage caused to weed species, SETFA.
[29] abbreviates: post-emergence, 1,000 g/ha, evaluated after 13 days (100=total damage; 0=no damage), read-out: Percentage damage caused to weed species, ALOMY.
Setting [30] is: post-emergence, 1,000 g/ha, evaluated after 13 days (100=total damage; 0=no damage), read-out: Percentage damage caused to weed species, AMARE.
The mark [31] stands for this setting: pre-emergence, 1,000 g/ha, evaluated after 13 days (100=total damage; 0=no damage), read-out: Percentage damage IPOHE.
Where [32] appears, read: pre-emergence, 1,000 g/ha, evaluated after 13 days (100=total damage; 0=no damage), read-out: Percentage damage SOLNI.
[33] abbreviates: pre-emergence, 1,000 g/ha, evaluated after 13 days (100=total damage; 0=no damage), read-out: Percentage damage ECHCG.
Where [34] appears, read: pre-emergence, 1,000 g/ha, evaluated after 13 days (100=total damage; 0=no damage), read-out: Percentage damage SETFA.
Setting [35] is: pre-emergence, 1,000 g/ha, evaluated after 13 days (100=total damage; 0=no damage), read-out: Percentage damage ALOMY.
Where [36] appears, read: pre-emergence, 1,000 g/ha, evaluated after 13 days (100=total damage; 0=no damage), read-out: Percentage damage AMARE.

For the compound `COC(=O)c1nc(Cl)nc(NCC2CC2)c1Cl` [Compound 207-31, 4-Cyclopropylmethyl-amino-2,5-dichloro-6-methoxycarbonyl-pyrimidine], the pest or weed control at 1000 g/ha turned out to be 10% in [1] (setting [13]); 60% in [2] (setting [14]); 0% in [3] (setting [15]); 40% in test [4] (setting [16]); 10% in test [5] (setting [17]); 50% in [6] (setting [18]). Moreover, the pest or weed control at 1000 g/ha was 0% in test [7] (setting [19]); 10% in [8] (setting [20]); 0% in test [9] (setting [21]); 0% in [10] (setting [22]); 0% in test [11] (setting [23]); 20% in test [12] (setting [24]).

Consider `C=CCCN(Cc1ccccc1)c1nc(C2CC2)nc(C(=O)OC)c1Cl` [Compound 154-60, 4-(N-But-3-enyl-N-phenylmethyl-amino)-5-chloro-2-cyclopropyl-6-methoxycarbonyl-pyrimidine], for which the pest or weed control at 1000 g/ha in [1] (setting [13]) is 80%; in test [2] (setting [14]), 50%; in [3] (setting [15]) it was 20%; in test [4] (setting [16]), 30%; in [5] (setting [17]) it was 20%; in [6] (setting [18]) it was 60%. The pest or weed control at 1000 g/ha in test [7] (setting [19]) was determined as 0%; in test [8] (setting [20]), 0%; in test [9] (setting [21]), 0%; in [10] (setting [22]), 0%; in test [11] (setting [23]), 0%; in test [12] (setting [24]) it was 40%.

`COC(=O)c1nc(C2CC2)nc(NC(C)c2ccccc2)c1Cl` (stereo not drawn) [Compound 4-174, 5-Chloro-2-cyclopropyl-6-methoxycarbonyl-4-(1-phenylethyl-amino)pyrimidine]: the pest or weed control at 1000 g/ha amounted to 100% in test [1] (setting [25]); 90% in [2] (setting [26]); 90% in test [3] (setting [27]); 90% in test [4] (setting [28]); 30% in test [5] (setting [29]); 100% in test [6] (setting [30]). Moreover, the pest or weed control at 1000 g/ha is 50% in test [7] (setting [31]); 70% in test [8] (setting [32]); 30% in test [9] (setting [33]); 20% in [10] (setting [34]); 20% in test [11] (setting [35]); 80% in test [12] (setting [36]).

As for `COC(=O)c1nc(C2CC2)nc(N(C)CC(O)c2ccccc2)c1Cl` (stereo not drawn) [Compound 5-257, 5-Chloro-2-cyclopropyl-4-[N-(2-hydroxy-2-phenyl-ethyl)-N-methyl-amino]-6-methoxy-carbonylpyrimidine], the pest or weed control at 1000 g/ha in [1] (setting [13]) came out at 80%; in test [2] (setting [14]), 80%; in [3] (setting [15]) it was 30%; in test [4] (setting [16]) it was 50%; in test [5] (setting [17]) it was 20%; in test [6] (setting [18]), 100%. Also, the pest or weed control at 1000 g/ha was found to be 50% in [7] (setting [19]); 100% in test [8] (setting [20]); 30% in test [9] (setting [21]); 10% in test [10] (setting [22]); 10% in [11] (setting [23]); 100% in [12] (setting [24]).

For `COC(=O)c1nc(C2CC2)nc(N(C)CCc2ccccc2)c1Cl` [Compound 5-221, 5-Chloro-2-cyclopropyl-6-methoxycarbonyl-4-[(N-methyl)-N-(2-phenylethyl)-amino]pyrimidine], the pest or weed control at 1000 g/ha in test [1] (setting [13]) turned out to be 100%; in [2] (setting [14]) it was 80%; in test [3] (setting [15]) it was 30%; in [4] (setting [16]) it was 40%; in test [5] (setting [17]), 10%; in test [6] (setting [18]) it was 100%. The pest or weed control at 1000 g/ha in test [7] (setting [19]) was determined as 40%; in test [8] (setting [20]), 30%; in test [9] (setting [21]), 0%; in test [10] (setting [22]) it was 0%; in test [11] (setting [23]), 0%; in test [12] (setting [24]), 30%.

As to `O=C(OCc1ccccc1)c1nc(C2CC2)nc(NCc2ccco2)c1Cl` [Compound 200-125], the pest or weed control at 1000 g/ha in test [1] (setting [13]) came out at 90%; in test [2] (setting [14]) it was 90%; in test [3] (setting [15]) it was 70%; in test [4] (setting [16]), 80%; in test [5] (setting [17]), 30%; in [6] (setting [18]), 100%. The pest or weed control at 1000 g/ha in test [7] (setting [19]) amounted to 100%; in test [8] (setting [20]), 100%; in test [9] (setting [21]), 70%; in test [10] (setting [22]), 70%; in test [11] (setting [23]), 50%; in test [12] (setting [24]), 100%.

With `COC(=O)c1nc(C2CC2)nc(NC(CO)C2CCOCC2)c1Cl` (stereo not drawn) [Compound 4-202, 5-Chloro-2-cyclopropyl-4-(2-hydroxy-1-tetrahydropyran-4-yl-ethylamino)-6-methoxycarbonyl-pyrimidine], the pest or weed control at 1000 g/ha in [1] (setting [25]) worked out at 50%; in test [2] (setting [26]), 80%; in [3] (setting [27]), 0%; in test [4] (setting [28]), 30%; in test [5] (setting [29]), 10%; in [6] (setting [30]) it was 100%. Further, the pest or weed control at 1000 g/ha is 100% in test [7] (setting [31]); 70% in test [8] (setting [32]); 30% in test [9] (setting [33]); 30% in test [10] (setting [34]); 20% in [11] (setting [35]); 60% in test [12] (setting [36]).

For the origin of these results see patent US20110086759A1, “CHEMICAL COMPOUNDS” (SYNGENTA CROP PROTECTION, INC., priority 2007, published 2011).
